Assay results reported in ChEMBL document CHEMBL3044810, “Synthesis and herbicidal activity of alkyl 1-(3-trifluoromethylphenoxyacetoxy)-1-substituted methylphosphonates” (J Pestic Sci, 2007).

System: Cucumis sativus
Experiment: Pre-emergence growth inhibition of Cucumis sativus (cucumber) under green house conditions
Format: functional, organism-based

SMILES	IC50 [µg/g]
COP(=O)(OC)C(OC(=O)COc1ccc(Cl)cc1Cl)c1ccccc1Cl (stereo not drawn)	0.048
COP(=O)([O-])COC(=O)COc1ccc(Cl)cc1Cl.[Na+]	0.31
CCCC(OC(=O)COc1ccc(Cl)cc1Cl)P(=O)([O-])OC.[K+] (stereo not drawn)	4.21
CCOP(=O)(OCC)C(OC(=O)COc1cccc(C(F)(F)F)c1)c1ccc(Cl)cc1 (stereo not drawn)	4.32
COP(=O)(OC)C(OC(=O)COc1cccc(C(F)(F)F)c1)c1ccc2c(c1)OCO2 (stereo not drawn)	4.87
O=C(O)COc1ccc(Cl)cc1Cl [2,4-DICHLOROPHENOXYACETIC ACID]	0.1379

System: Digitaria sanguinalis
Experiment: Post-emergence herbicidal activity against Digitaria sanguinalis (hairy crabgrass) assessed as growth inhibition at 1.5 ai kg/ha under green house conditions
Format: functional

SMILES	growth inhibition (GI) [%]
CCOP(=O)(OCC)C(C)OC(=O)COc1ccc(C)cc1 (stereo not drawn)	0
COP(=O)(OC)C(OC(=O)COc1ccc(Cl)cc1Cl)c1ccccc1Cl (stereo not drawn)	68.75
COP(=O)([O-])COC(=O)COc1ccc(Cl)cc1Cl.[Na+]	28.6
CCCC(OC(=O)COc1ccc(Cl)cc1Cl)P(=O)([O-])OC.[K+] (stereo not drawn)	38.9
O=C(COc1ccc(Cl)cc1Cl)OC(c1ccccc1Cl)P(=O)(O)O (stereo not drawn)	13
COP(=O)(OC)C(C)OC(=O)COc1cccc(C(F)(F)F)c1 (stereo not drawn)	39.1
CCOP(=O)(OCC)C(OC(=O)COc1cccc(C(F)(F)F)c1)c1ccc(Cl)cc1 (stereo not drawn)	16
COP(=O)(OC)C(OC(=O)COc1cccc(C(F)(F)F)c1)c1ccc2c(c1)OCO2 (stereo not drawn)	12
O=C(O)COc1ccc(Cl)cc1Cl [2,4-DICHLOROPHENOXYACETIC ACID]	59.6
COP(=O)(OC)C(C)OC(=O)COc1ccc(Cl)cc1Cl (stereo not drawn) [CLACYFOS]	55

System: Brassica napus
Experiment: Pre-emergence herbicidal activity against Brassica napus (oilseed rape) assessed as growth inhibition at 1.5 ai kg/ha under green house conditions
Format: functional

SMILES	growth inhibition (GI) [%]
CCOP(=O)(OCC)C(C)OC(=O)COc1ccc(C)cc1 (stereo not drawn)	62.17
COP(=O)(OC)C(OC(=O)COc1ccc(Cl)cc1Cl)c1ccccc1Cl (stereo not drawn)	100
COP(=O)([O-])COC(=O)COc1ccc(Cl)cc1Cl.[Na+]	96.6
CCCC(OC(=O)COc1ccc(Cl)cc1Cl)P(=O)([O-])OC.[K+] (stereo not drawn)	37
O=C(COc1ccc(Cl)cc1Cl)OC(c1ccccc1Cl)P(=O)(O)O (stereo not drawn)	67
COP(=O)(OC)C(C)OC(=O)COc1cccc(C(F)(F)F)c1 (stereo not drawn)	56.1
CCOP(=O)(OCC)C(OC(=O)COc1cccc(C(F)(F)F)c1)c1ccc(Cl)cc1 (stereo not drawn)	13.8
COP(=O)(OC)C(OC(=O)COc1cccc(C(F)(F)F)c1)c1ccc2c(c1)OCO2 (stereo not drawn)	64.6
O=C(O)COc1ccc(Cl)cc1Cl [2,4-DICHLOROPHENOXYACETIC ACID]	100
COP(=O)(OC)C(C)OC(=O)COc1ccc(Cl)cc1Cl (stereo not drawn) [CLACYFOS]	99.5

System: Echinochloa crus-galli
Experiment: Pre-emergence herbicidal activity against Echinochloa crus-galli (barnyard grass) assessed as growth inhibition at 1.5 ai kg/ha under green house conditions
Format: functional

SMILES	growth inhibition (GI) [%]
COP(=O)(OC)C(OC(=O)COc1ccc(Cl)cc1Cl)c1ccccc1Cl (stereo not drawn)	70
COP(=O)([O-])COC(=O)COc1ccc(Cl)cc1Cl.[Na+]	84.6
CCCC(OC(=O)COc1ccc(Cl)cc1Cl)P(=O)([O-])OC.[K+] (stereo not drawn)	32.1
O=C(COc1ccc(Cl)cc1Cl)OC(c1ccccc1Cl)P(=O)(O)O (stereo not drawn)	10
COP(=O)(OC)C(C)OC(=O)COc1cccc(C(F)(F)F)c1 (stereo not drawn)	57.3
CCOP(=O)(OCC)C(OC(=O)COc1cccc(C(F)(F)F)c1)c1ccc(Cl)cc1 (stereo not drawn)	76.5
COP(=O)(OC)C(OC(=O)COc1cccc(C(F)(F)F)c1)c1ccc2c(c1)OCO2 (stereo not drawn)	70.6
O=C(O)COc1ccc(Cl)cc1Cl [2,4-DICHLOROPHENOXYACETIC ACID]	80
COP(=O)(OC)C(C)OC(=O)COc1ccc(Cl)cc1Cl (stereo not drawn) [CLACYFOS]	70

System: Amaranthus retroflexus
Experiment: Pre-emergence herbicidal activity against Amaranthus retroflexus assessed as growth inhibition at 1.5 ai kg/ha under green house conditions
Format: functional

SMILES	growth inhibition (GI) [%]
COP(=O)(OC)C(OC(=O)COc1ccc(Cl)cc1Cl)c1ccccc1Cl (stereo not drawn)	100
COP(=O)([O-])COC(=O)COc1ccc(Cl)cc1Cl.[Na+]	96.6
CCCC(OC(=O)COc1ccc(Cl)cc1Cl)P(=O)([O-])OC.[K+] (stereo not drawn)	18.6
O=C(COc1ccc(Cl)cc1Cl)OC(c1ccccc1Cl)P(=O)(O)O (stereo not drawn)	23
COP(=O)(OC)C(C)OC(=O)COc1cccc(C(F)(F)F)c1 (stereo not drawn)	43.4
CCOP(=O)(OCC)C(OC(=O)COc1cccc(C(F)(F)F)c1)c1ccc(Cl)cc1 (stereo not drawn)	86.4
COP(=O)(OC)C(OC(=O)COc1cccc(C(F)(F)F)c1)c1ccc2c(c1)OCO2 (stereo not drawn)	100
O=C(O)COc1ccc(Cl)cc1Cl [2,4-DICHLOROPHENOXYACETIC ACID]	95.5
COP(=O)(OC)C(C)OC(=O)COc1ccc(Cl)cc1Cl (stereo not drawn) [CLACYFOS]	100

System: Amaranthus retroflexus
Experiment: Post-emergence herbicidal activity against Amaranthus retroflexus assessed as growth inhibition at 1.5 ai kg/ha under green house conditions
Format: functional

SMILES	growth inhibition (GI) [%]
CCOP(=O)(OCC)C(C)OC(=O)COc1ccc(C)cc1 (stereo not drawn)	0
COP(=O)(OC)C(OC(=O)COc1ccc(Cl)cc1Cl)c1ccccc1Cl (stereo not drawn)	100
COP(=O)([O-])COC(=O)COc1ccc(Cl)cc1Cl.[Na+]	100
CCCC(OC(=O)COc1ccc(Cl)cc1Cl)P(=O)([O-])OC.[K+] (stereo not drawn)	38.5
O=C(COc1ccc(Cl)cc1Cl)OC(c1ccccc1Cl)P(=O)(O)O (stereo not drawn)	23
COP(=O)(OC)C(C)OC(=O)COc1cccc(C(F)(F)F)c1 (stereo not drawn)	27.3
CCOP(=O)(OCC)C(OC(=O)COc1cccc(C(F)(F)F)c1)c1ccc(Cl)cc1 (stereo not drawn)	86.3
COP(=O)(OC)C(OC(=O)COc1cccc(C(F)(F)F)c1)c1ccc2c(c1)OCO2 (stereo not drawn)	88.5
O=C(O)COc1ccc(Cl)cc1Cl [2,4-DICHLOROPHENOXYACETIC ACID]	100
COP(=O)(OC)C(C)OC(=O)COc1ccc(Cl)cc1Cl (stereo not drawn) [CLACYFOS]	100

System: Digitaria sanguinalis
Experiment: Pre-emergence herbicidal activity against Digitaria sanguinalis (hairy crabgrass) assessed as growth inhibition at 1.5 ai kg/ha under green house conditions
Format: functional

SMILES	growth inhibition (GI) [%]
CCOP(=O)(OCC)C(C)OC(=O)COc1ccc(C)cc1 (stereo not drawn)	0
COP(=O)(OC)C(OC(=O)COc1ccc(Cl)cc1Cl)c1ccccc1Cl (stereo not drawn)	50
COP(=O)([O-])COC(=O)COc1ccc(Cl)cc1Cl.[Na+]	90.3
CCCC(OC(=O)COc1ccc(Cl)cc1Cl)P(=O)([O-])OC.[K+] (stereo not drawn)	35.2
O=C(COc1ccc(Cl)cc1Cl)OC(c1ccccc1Cl)P(=O)(O)O (stereo not drawn)	23
COP(=O)(OC)C(C)OC(=O)COc1cccc(C(F)(F)F)c1 (stereo not drawn)	73.1
CCOP(=O)(OCC)C(OC(=O)COc1cccc(C(F)(F)F)c1)c1ccc(Cl)cc1 (stereo not drawn)	95.7
COP(=O)(OC)C(OC(=O)COc1cccc(C(F)(F)F)c1)c1ccc2c(c1)OCO2 (stereo not drawn)	93.2
O=C(O)COc1ccc(Cl)cc1Cl [2,4-DICHLOROPHENOXYACETIC ACID]	88.7
COP(=O)(OC)C(C)OC(=O)COc1ccc(Cl)cc1Cl (stereo not drawn) [CLACYFOS]	70

System: Medicago sativa
Experiment: Post-emergence herbicidal activity against Medicago sativa (alfalfa) assessed as growth inhibition at 1.5 ai kg/ha under green house conditions
Format: functional

SMILES	growth inhibition (GI) [%]
COP(=O)([O-])COC(=O)COc1ccc(Cl)cc1Cl.[Na+]	92.5
CCCC(OC(=O)COc1ccc(Cl)cc1Cl)P(=O)([O-])OC.[K+] (stereo not drawn)	91.2
COP(=O)(OC)C(C)OC(=O)COc1cccc(C(F)(F)F)c1 (stereo not drawn)	100
CCOP(=O)(OCC)C(OC(=O)COc1cccc(C(F)(F)F)c1)c1ccc(Cl)cc1 (stereo not drawn)	100
COP(=O)(OC)C(OC(=O)COc1cccc(C(F)(F)F)c1)c1ccc2c(c1)OCO2 (stereo not drawn)	100
O=C(O)COc1ccc(Cl)cc1Cl [2,4-DICHLOROPHENOXYACETIC ACID]	95.5
COP(=O)(OC)C(C)OC(=O)COc1ccc(Cl)cc1Cl (stereo not drawn) [CLACYFOS]	100

System: Brassica napus
Experiment: Post-emergence herbicidal activity against Brassica napus (oilseed rape) assessed as growth inhibition at 1.5 ai kg/ha under green house conditions
Format: functional

SMILES	growth inhibition (GI) [%]
CCOP(=O)(OCC)C(C)OC(=O)COc1ccc(C)cc1 (stereo not drawn)	30.9
COP(=O)(OC)C(OC(=O)COc1ccc(Cl)cc1Cl)c1ccccc1Cl (stereo not drawn)	100
COP(=O)([O-])COC(=O)COc1ccc(Cl)cc1Cl.[Na+]	97.7
CCCC(OC(=O)COc1ccc(Cl)cc1Cl)P(=O)([O-])OC.[K+] (stereo not drawn)	42.6
O=C(COc1ccc(Cl)cc1Cl)OC(c1ccccc1Cl)P(=O)(O)O (stereo not drawn)	49
COP(=O)(OC)C(C)OC(=O)COc1cccc(C(F)(F)F)c1 (stereo not drawn)	92.6
CCOP(=O)(OCC)C(OC(=O)COc1cccc(C(F)(F)F)c1)c1ccc(Cl)cc1 (stereo not drawn)	45.4
COP(=O)(OC)C(OC(=O)COc1cccc(C(F)(F)F)c1)c1ccc2c(c1)OCO2 (stereo not drawn)	43.3
O=C(O)COc1ccc(Cl)cc1Cl [2,4-DICHLOROPHENOXYACETIC ACID]	89.13
COP(=O)(OC)C(C)OC(=O)COc1ccc(Cl)cc1Cl (stereo not drawn) [CLACYFOS]	100

System: Echinochloa crus-galli
Experiment: Post-emergence herbicidal activity against Echinochloa crus-galli (barnyard grass) assessed as growth inhibition at 1.5 ai kg/ha under green house conditions
Format: functional

SMILES	growth inhibition (GI) [%]
CCOP(=O)(OCC)C(C)OC(=O)COc1ccc(C)cc1 (stereo not drawn)	47.4
COP(=O)(OC)C(OC(=O)COc1ccc(Cl)cc1Cl)c1ccccc1Cl (stereo not drawn)	50
COP(=O)([O-])COC(=O)COc1ccc(Cl)cc1Cl.[Na+]	28
CCCC(OC(=O)COc1ccc(Cl)cc1Cl)P(=O)([O-])OC.[K+] (stereo not drawn)	33.8
O=C(COc1ccc(Cl)cc1Cl)OC(c1ccccc1Cl)P(=O)(O)O (stereo not drawn)	20.5
COP(=O)(OC)C(C)OC(=O)COc1cccc(C(F)(F)F)c1 (stereo not drawn)	12.3
CCOP(=O)(OCC)C(OC(=O)COc1cccc(C(F)(F)F)c1)c1ccc(Cl)cc1 (stereo not drawn)	5.6
COP(=O)(OC)C(OC(=O)COc1cccc(C(F)(F)F)c1)c1ccc2c(c1)OCO2 (stereo not drawn)	15.3
O=C(O)COc1ccc(Cl)cc1Cl [2,4-DICHLOROPHENOXYACETIC ACID]	54.5
COP(=O)(OC)C(C)OC(=O)COc1ccc(Cl)cc1Cl (stereo not drawn) [CLACYFOS]	50

System: Medicago sativa
Experiment: Pre-emergence herbicidal activity against Medicago sativa (alfalfa) assessed as growth inhibition at 1.5 ai kg/ha under green house conditions
Format: functional

SMILES	growth inhibition (GI) [%]
COP(=O)([O-])COC(=O)COc1ccc(Cl)cc1Cl.[Na+]	100
CCCC(OC(=O)COc1ccc(Cl)cc1Cl)P(=O)([O-])OC.[K+] (stereo not drawn)	10.2
COP(=O)(OC)C(C)OC(=O)COc1cccc(C(F)(F)F)c1 (stereo not drawn)	63.8
CCOP(=O)(OCC)C(OC(=O)COc1cccc(C(F)(F)F)c1)c1ccc(Cl)cc1 (stereo not drawn)	100
COP(=O)(OC)C(OC(=O)COc1cccc(C(F)(F)F)c1)c1ccc2c(c1)OCO2 (stereo not drawn)	100
O=C(O)COc1ccc(Cl)cc1Cl [2,4-DICHLOROPHENOXYACETIC ACID]	90
COP(=O)(OC)C(C)OC(=O)COc1ccc(Cl)cc1Cl (stereo not drawn) [CLACYFOS]	98
